Measured values from US10294202B2, “Pyrrolidinones as herbicides” (FMC Corporation, priority 2013, dated 2019).

Assays:
windgrass = test: Test D pre-/postemergence herbicide test; assay type: in vivo, Apera spica-venti; details: for Plant response rating: Postemergence, Windgrass, scale 0 to 100; for Plant response rating, Windgrass: Preemergence, scale 0 to 100 (0 no effect, 100 complete control)
Excerpt: Seeds of plant species selected from bluegrass (annual bluegrass, Poa annua), blackgrass (Alopecurus myosuroides), canarygrass (littleseed canarygrass, Phalaris minor), chickweed (common chickweed, Stellaria media), galium (catchweed bedstraw, Galium aparine), bromegrass, downy (downy bromegrass, Bromus tectorum), field poppy (Papaver rhoeas), field violet (Viola arvensis), foxtail, green (green foxtail, Setaria viridis), deadnettle (henbit deadnettle, Lamium amplexicaule), ryegrass, Italian (Italian ryegrass, Lolium multiflorum), kochia (Kochia scoparia), lambsquarters (Chenopodium album), oilseed rape (Brassica napus), pigweed (Amaranthus retroflexus), chamomile (scentless chamomile, Matricaria inodora), Russian thistle (Salsola kali), speedwell (bird's-eye speedwell, Veronica persica), barley, spring (spring barley, Hordeum vulgare), wheat, spring (spring wheat, Triticum aestivum), buckwheat, wild (wild buckwheat, Polygonum convolvulus), mustard, wild (wild mustard, Sinapis arvensis), oat, wild (wild oat, Avena fatua), radish, wild (wild radish, Raphanus raphanistrum), […]), barley, winter (winter barley, Hordeum vulgare), and wheat, winter (winter wheat, Triticum aestivum) were planted into a silt loam soil and treated preemergence with test chemicals formulated in a non-phytotoxic solvent mixture which included a surfactant. At the same time, these species were planted in pots containing Redi-Earth® planting medium (Scotts Company, 14111 Scottslawn Road, Marysville, Ohio 43041) comprising spaghnum peat moss, vermiculite, wetting agent and starter nutrients and treated with postemergence applications of the test chemicals formulated in the same manner. Plants ranged in height from 2 to 18 cm (1- to 4-leaf stage). Treated plants and controls were maintained in a controlled growth environment for 7 to 21 days after which time all species were compared to controls and visually evaluated. Plant response ratings, summarized in Table D, are based on a scale of 0 to 100 where 0 is no effect and 100 is complete control. A dash (-) response means no test result.

wheat, winter = test: Test D pre-/postemergence herbicide test; assay type: in vivo, Triticum aestivum; details: for Plant response rating: Postemergence, Wheat, Winter, scale 0 to 100; for Plant response rating, Wheat, Winter: Preemergence, scale 0 to 100 (0 no effect, 100 complete control)
Outline: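 Plants were maintained 7 to 21 days in a controlled environment after treatment and then scored visually against controls (0 no effect, 100 complete control). Seeds in silt loam received preemergence sprays, and 1- to 4-leaf plants received postemergence sprays, both formulated in non-phytotoxic solvent with surfactant.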

foxtail, green = test: Test C pre-/postemergence herbicide test; assay type: in vivo, Setaria viridis
Excerpt: Seeds of plant species selected from blackgrass (Alopecurus myosuroides), ryegrass, Italian (Italian ryegrass, Lolium multiflorum), wheat (winter wheat, Triticum aestivum), galium (catchweed bedstraw, Galium aparine), corn (Zea mays), crabgrass, large (large crabgrass, Digitaria sanguinalis), foxtail, giant (giant foxtail, Setaria faberii), johnsongrass (Sorghum halepense), lambsquarters (Chenopodium album), morningglory (Ipomoea coccinea), nutsedge, yellow (yellow nutsedge, Cyperus esculentus), pigweed (Amaranthus retroflexus), ragweed (common ragweed, Ambrosia elatior), soybean (Glycine max), barnyardgrass (Echinochloa crus-galli), oilseed rape (Brassica napus), waterhemp (common waterhemp, Amaranthus rudis), kochia (Kochia scoparia), oat, wild (wild oat, Avena fatua), surinam grass (Brachiaria decumbens), foxtail, green (green foxtail, Setaria viridis), goosegrass (Eleusine indica), bromegrass, downy (downy bromegrass, Bromus tectorum), nightshade (eastern black nightshade, Solanum ptycanthum), cocklebur (common cocklebur, Xanthium strumarium), cupgrass, woolly (woolly cupgrass, Eriochloa villosa), bermudagrass (Cynodon dactylon), sunflower, (common oilseed sunflower, Helianthus annuus), Russian thistle (Salsola kali) and velvetleaf (Abutilon theophrasti) were planted into a blend of loam soil and sand and treated preemergence with test chemicals formulated in a non-phytotoxic solvent mixture which included a surfactant. At the same time, plants selected from these crop and weed species and also barley (winter barley, Hordeum vulgare), […]), chickweed (common chickweed, Stellaria media), deadnettle (henbit deadnettle, Lamium amplexicaule), and canarygrass (littleseed canarygrass, Phalaris minor) were planted in pots containing Redi-Earth® planting medium (Scotts Company, 14111 Scottslawn Road, Marysville, Ohio 43041) comprising spaghnum peat moss, vermiculite, wetting agent and starter nutrients and treated with postemergence applications of test chemicals formulated in the same manner. Plants ranged in height from 2 to 18 cm (1- to 4-leaf stage) for postemergence treatments. Treated plants and controls were maintained in a greenhouse for 13 to 15 days, after which time all species were compared to controls and visually evaluated. Plant response ratings, summarized in Table C, are based on a scale of 0 to 100 where 0 is no effect and 100 is complete control. A dash (-) response means no test result.

[1] = Preemergence, 62 g ai/ha, scale 0 to 100
[2] = Preemergence, 125 g ai/ha, scale 0 to 100 (0 no effect, 100 complete control)
[3] = Preemergence, 31 g ai/ha, scale 0 to 100 (0 no effect, 100 complete control)
[4] = Postemergence, 31 g ai/ha, scale 0 (no effect) to 100 (complete control)
[5] = Postemergence, 62 g ai/ha, scale 0 to 100 (0 no effect, 100 complete control)
[6] = Postemergence, 125 g ai/ha, scale 0 to 100 (0 no effect, 100 complete control)

| SMILES | Plant response rating (windgrass; 31 g ai/ha) | Plant response rating (windgrass; 62 g ai/ha) | Plant response rating (windgrass; 125 g ai/ha) | Plant response rating, Windgrass (windgrass; 62 g ai/ha) | Plant response rating, Windgrass (windgrass; 125 g ai/ha) | Plant response rating, Windgrass (windgrass; 31 g ai/ha) | Plant response rating, Windgrass (windgrass; 250 g ai/ha) | Plant response rating (wheat, winter; 31 g ai/ha) | Plant response rating (wheat, winter; 62 g ai/ha) | Plant response rating (wheat, winter; 125 g ai/ha) | Plant response rating, Wheat, Winter (wheat, winter; 62 g ai/ha) | Plant response rating, Wheat, Winter (wheat, winter; 125 g ai/ha) | Plant response rating, Wheat, Winter (wheat, winter; 31 g ai/ha) | Plant response rating, Wheat, Winter (wheat, winter; 250 g ai/ha) | Plant response rating, Foxtail, Green (foxtail, green; [1]) | Plant response rating, Foxtail, Green (foxtail, green; [2]) | Foxtail, Green plant response rating (foxtail, green; [3]) | Plant response rating, Foxtail, Green (foxtail, green; [4]) | Plant response rating, Foxtail, Green (foxtail, green; [5]) | Plant response rating, Foxtail, Green (foxtail, green; [6]) | also measured |
| --- | --- | --- | --- | --- | --- | --- | --- | --- | --- | --- | --- | --- | --- | --- | --- | --- | --- | --- | --- | --- | --- |
| O=C1NCC(c2ccc(F)c(F)c2)C1C(=O)Nc1ccccc1C(F)(F)F (racemic) [Compound 6] | 0 | 0 | 0 | 0 | 100 | 0 | 100 | 0 | 0 | 0 | 0 | 0 | 0 | 0 |  |  |  |  |  |  | Plant response rating (windgrass; 16 g ai/ha): 0; Plant response rating (windgrass; 250 g ai/ha): 0; Plant response rating, Windgrass (windgrass; 16 g ai/ha): 0; Plant response rating (wheat, winter; 16 g ai/ha): 0; Plant response rating (wheat, winter; 250 g ai/ha): 0; Plant response rating, Wheat, Winter (wheat, winter; 16 g ai/ha): 0 |
| O=C1NCC(c2ccc(F)c(C(F)(F)F)c2)C1C(=O)Nc1cccc(F)c1F (racemic) [Compound 77] |  |  |  | 85 | 90 | 45 | 95 |  |  |  | 0 | 25 | 0 | 55 |  |  |  |  |  |  |  |
| O=C1NCCC1C(=O)N(c1ccc(F)c(F)c1)c1ccccc1F (centres unmarked) [Compound 5, N-(3,4-difluorophenyl)-N-(2-fluorophenyl)-2-oxo-3-pyrrolidinecarboxamide] |  |  |  |  |  |  |  |  |  |  |  |  |  |  | 90 | 90 | 85 |  |  |  | Plant response rating, Foxtail, Green (foxtail, green; Preemergence, 250 g ai/ha, scale 0 to 100 (0 no effect, 100 complete control)): 95 |
| O=C1NCC(c2cc(F)c(F)c(F)c2)C1C(=O)Nc1cccc(F)c1F (centres unmarked) [Compound 48] |  |  |  |  |  |  |  |  |  |  |  |  |  |  | 90 | 90 | 80 | 0 | 0 | 65 | Plant response rating, Foxtail, Green (foxtail, green; Postemergence, 16 g ai/ha, scale 0 to 100 (0 no effect, 100 complete control)): 0; Plant response rating, Foxtail, Green (foxtail, green; Preemergence, 16 g ai/ha, scale 0 to 100): 70 |
| O=C1NCC(c2cc(F)c(F)cc2F)C1C(=O)Nc1cccc(F)c1F (centres unmarked) [Compound 50] | 0 | 0 | 0 | 5 | 0 | 0 |  | 0 | 0 | 0 | 0 | 0 | 0 |  |  |  |  | 0 | 0 | 0 | Plant response rating (windgrass; 16 g ai/ha): 0; Plant response rating, Windgrass (windgrass; 16 g ai/ha): 0; Plant response rating, Foxtail, Green (foxtail, green; Postemergence, 250 g ai/ha, scale 0 to 100 (0 no effect, 100 complete control)): 30; Plant response rating (wheat, winter; 16 g ai/ha): 0; Plant response rating, Wheat, Winter (wheat, winter; 16 g ai/ha): 0 |
| O=C1NCC(c2ccc(F)c(Cl)c2)C1C(=O)Nc1ccccc1F (centres unmarked) [Compound 60] |  |  |  |  |  |  |  |  |  |  |  |  |  |  | 90 | 90 | 90 | 20 | 35 | 45 |  |
| O=C1NCC(c2cccc(OC(F)(F)F)c2)C1C(=O)Nc1ccccc1F (centres unmarked) [Compound 69] |  |  |  |  |  |  |  |  |  |  |  |  |  |  | 90 | 95 |  |  |  |  | Foxtail, Green plant response rating (foxtail, green; Preemergence, 31 g ai/ha, scale 0 to 100, 0 is no effect and 100 is complete control): 90; Plant response rating (scale of 0 to 100), Foxtail, Green (foxtail, green; Preemergence, 250 g ai/ha): 95 |
| O=C1NCC(c2ccc(C(F)(F)F)cc2)C1C(=O)Nc1ccccc1F (centres unmarked) [Compound 231] | 0 | 5 | 0 | 70 | 75 | 55 | 85 | 0 | 0 | 0 | 10 | 15 | 5 | 25 |  |  |  |  |  |  | Plant response rating (windgrass; 250 g ai/ha): 15; Plant response rating (wheat, winter; 250 g ai/ha): 0 |
